Consider 32 compounds from a melting point compilation (Tetko et al.; mined from patent text by program, amines drawn as free bases though some values may be those of a salt).

SMILES strings stand for the structures. Residues, ends and D or L forms follow the SMILES beside them. *: point of attachment. Boc = CC(C)(C)OC(=O)*

`COc1cc2c(cc1Br)CCOC2c1ccc([N+](=O)[O-])cc1` (configuration not stated) yielded a melting point of 144 to 147 °C. For the compound `O=C1CCc2c(-c3ccncc3)sc(-c3cccnc3)c21`, the melting point lay in the range of 214 to 216 °C. `CC(C)=Cc1c(C)nc(C)c(CO)c1-c1ccccc1` registered a melting point of 48 to 50 °C. For `COc1cccc(C(=O)c2sc3cc(OC)ccc3c2-c2ccccc2)c1` the value was 101 to 103 °C; for `CC(=O)NCc1ccc(C(C)(C)C(=O)O)cc1`, 166 to 169 °C. `Cc1oc(-c2ccccc2)nc1CCC(N)=O` showed a melting point of 149 to 150 °C.

In the case of `CCCCCSc1c[nH]nc1C1=CCCN(C)C1`, the melting point is 100 to 101 °C. Turning to `CC(CO)C1CCC2C3CCC4=CC(=O)CCC4(C)C3CCC12C` (configuration not stated), the melting point was 140 to 141 °C. The compound `Cc1ccccc1OCCCc1oc(-n2ccnc2)nc1-c1ccc(Cl)cc1` gave a melting point of 113 to 114 °C. For `COc1ccc(C2c3[nH]c4ccccc4c3CCN2C(=O)C=Cc2cccc([N+](=O)[O-])c2)cc1` (configuration not stated) the value was 227 °C. The compound `N[C@@H](CSCC1CCN(C(=O)OCc2ccccc2)CC1)C(=O)O` gave a melting point of 187 to 190 °C. In turn, `O=C(NC(Cc1ccccc1)C(=O)O)OCc1cc2cc(-c3cncnc3)ccc2o1` (configuration not stated) displayed a melting point of 192 °C.

`Cn1cccc1C(=O)NN(C(=O)c1ccccc1)C(C)(C)C` displayed a melting point of 182 to 185 °C. `CC(C)(C)NCC(O)COc1ccccc1C=Cc1cccc2c1CC(=O)N2` (configuration not stated) returned a melting point of 112 °C. For `O=C(Nc1cc(C2OCCCO2)ccc1O)c1ccccc1OCCCCc1ccccc1` the value was 122 to 123 °C; for `CC(C)(C)C(=O)Oc1cc2c(c3ccccc13)Nc1ccccc1S2`, 142 °C.

Regarding `NCCc1ccc(OCc2ccccc2)c(NC(N)=O)c1`, the melting point lay in the range of 176 to 180 °C.

For `CCOC(=O)COc1cc(OC)c2c(c1[N+](=O)[O-])OC1(CCCCC1)CC2=O`, the melting point is 142 to 143 °C. `CC(C)(O)CON1C(C)(C)CC(OC(=O)c2ccc3nn(-c4cc(C(C)(C)C)cc(C(C)(C)c5ccc(Cl)cc5)c4O)nc3c2)CC1(C)C` had a melting point of 80 to 90 °C.

`COC(=O)C(Cc1ccccc1)NC(=O)C(Cc1ccccc1)NC(=O)C(CC(N)=O)NC(=O)CNC(=O)OC(C)(C)C` (configuration not stated) (Boc-GNFF-OMe; configuration not given here) yielded a melting point of 211 to 214 °C.

The compound `CCOCc1nc2c(N)nc3ccccc3c2n1CCCc1cc(-c2ccccc2)no1` came in with a melting point of 171 to 172 °C. The same measure for `O=c1n(-c2ccccc2)c(=O)n(SC(Cl)(Cl)Cl)n1SC(Cl)(Cl)Cl`: 175 °C.

In turn, `CCCCC/C(=C\C=C\C(=O)NCCCCc1cccnc1)c1ccc(OC)cc1` registered a melting point of 81.5 to 82.5 °C. `CCOC(=O)C(C)Oc1cc(-n2c(=O)cc(C(F)(F)F)n(C)c2=O)c(F)cc1Cl` (configuration not stated) gave a melting point of 72 to 74 °C. With `CCOc1cccc(-c2cc(F)c(NC(=O)c3ccccc3CO)c(Cl)c2)c1`, the melting point is 139 to 142 °C.

`CCOC(=O)CC(=O)c1cc(F)c(S(=O)c2ccccc2)nc1Nc1ccc(F)cc1F` (configuration not stated) had a melting point of 105 to 106 °C.

For the compound `CCc1nc(Cl)c(C=O)n1Cc1ccc2oc(-c3ccccc3NC(=O)OC(C)(C)C)c(Br)c2c1`, the melting point fell in the range of 65 to 66 °C. Take `C=C1CC(C=CC(O)CCCCC)C(O)(Cc2cccc(OCc3ccccc3)c2)C1` (configuration not stated): the melting point turned out to be 58 °C. On to `O=C(O)Cc1ccc(NC(=O)C(CCc2ccccc2)NS(=O)(=O)c2ccc(Cl)cc2)cc1` (racemic), for which the melting point lay within 163 to 167 °C. As for `Cc1noc(-c2ncn3c2[C@@H]2CCCN2C(=O)c2c(Cl)cccc2-3)n1`, the melting point was in the range of 230 to 231 °C. On to `CC#CCOc1cc(Oc2cccc(C#N)c2)ncn1`, for which the melting point was determined as 121 °C. The same measure for `Cc1ccc(S(=O)(=O)OCCCOc2ccc([N+](=O)[O-])c(CS(=O)(=O)c3cccc4ccccc34)c2)cc1`: 162 to 164 °C.

In general, melting point refers to the temperature of the solid-liquid transition.
